Data set [1] has as its system HBV viral load, AD38 cells. Put plainly: Activity of test compounds on viral production from AD38 cells (viral load by quantitative PCR of the core sequence in supernatant). Particulars: Hepatitis B virus, 144 h, 10 μM compound, 6 days at 37° C., vs DMSO control wells; Table 6; read-out: AD38 Viral Load (CpAM/DMSO %) at 10 μM. The class given is cell-based, Hepatitis B virus. The procedure: (§1) AD38 cells were then re-suspended with 10 mL of treatment medium and counted. Wells of a collagen coated 96-well NUNC microtiter plate were seeded at 50,000/well in 180 μL of treatment medium, and 20 μL of either 10% DMSO (Control) or a 10× solution of test compound in 10% DMSO in treatment media was added for a final compound concentration 1, 3, or 10 μM (1.0% final [DMSO]) and plates were incubated for 6 days at 37° C.
Subsequently viral load production was assayed by quantitative PCR of the core sequence. Briefly, 5 μL of clarified supernatant was added to a PCR reaction mixture that contained forward primers HBV-f 5′-CTGTGCCTTGGGTGGCTTT-3′, Reverse primers HBV-r 5′-[…]-3′ and Fluorescent TaqMan™ Probes HBV-probe 5′-FAM/AGCTCCAAA/ZEN/[…]/3IABkFQ-3′ in Quanta Biosciences PerfeCTa® qPCR Toughmix®, and was subsequently on an Applied Biosystems VIIA7 in a final volume of 20 μL. The PCR mixture was incubated at 45° C. for 5 minutes, then 95° C. for 10 min, followed by 40 cycles of 10 seconds at 95° C. and 20 seconds at 60° C. Viral load was quantitated against known standards by using ViiA™ 7 Software. Viral load in the supernatant from wells with treated cells were compared against viral load in supernatant from DMSO control wells (≥3 per plate).

Data set [2] concerns AD38 cells. Put plainly: AD38 viability normalized to DMSO control. The class given is cell-based. Conditions: 10 μM compound, vs DMSO control; Table 6. The procedure:
as §1

Structures are written as SMILES.

This note sets out measurements from US10273228B2, “Hepatitis B viral assembly effectors” (Indiana University Research and Technology Corporation, priority 2015, dated 2019).

Regarding `COc1ccc(S(=O)(=O)N2CCN(c3nc(Nc4ccc(C)cc4)cc(-n4cncn4)n3)CC2)cc1` [Compound 1230], the activity at 10 µM in data set [1] came out at 0%. Also, the “AD38 Viability Normalized Result (CPAM/DMSO %) at 10 μM” value in data set [2] was 95%.
Turning to `COc1ccc(S(=O)(=O)N2CCN(c3nc(Nc4ccc(C)cc4)cc(NC(C)C)n3)CC2)cc1` [Compound 1231], the activity at 10 µM in data set [1] was 45%. The “AD38 Viability Normalized Result (CPAM/DMSO %) at 10 μM” value in data set [2] is 94%.
The like results for `COc1ccc(S(=O)(=O)N2CCN(c3nc(NCCO)cc(Nc4ccc(C)cc4)n3)CC2)cc1` [Compound 1232] were, in that order, 83% and 96%.
With `COc1ccc(S(=O)(=O)N2CCN(c3nc(C)cc(Nc4nccs4)n3)CC2)cc1` [Compound 1233], the activity at 10 µM in data set [1] amounted to 87%. Also, in data set [2], the “AD38 Viability Normalized Result (CPAM/DMSO %) at 10 μM” value stood at 95%.
Taken in the same sequence, the figures for `COc1ccc(S(=O)(=O)N2CCN(c3nc(C)cc(Nc4cccnc4)n3)CC2)cc1` [Compound 1234] were 82% and 101%.
Turning to `Cc1ccc(Nc2cc(C)nc(N3CCN(S(=O)(=O)c4cn[nH]c4)CC3)n2)cc1` [Compound 1238], the activity at 10 µM in data set [1] is 26%. Further, in data set [2], the “AD38 Viability Normalized Result (CPAM/DMSO %) at 10 μM” value came to 102%.
On to `COc1ccc(S(=O)(=O)N2CCN(c3nc(C)cc(Nc4ccncc4)n3)CC2)cc1` [Compound 1240], for which the activity at 10 µM in data set [1] is 46%. The “AD38 Viability Normalized Result (CPAM/DMSO %) at 10 μM” value in data set [2] worked out at 102%.
In the case of `COc1ccc(S(=O)(=O)N2CCN(c3nc(Nc4ccc(C)cc4)cc(N4CCSCC4)n3)CC2)cc1` [Compound 1241, 2-(4-((4-methoxyphenyl)sulfonyl)piperazin-1-yl)-6-thiomorpholino-N-(p-tolyl) pyrimidin-4-amine], in data set [1], the activity at 10 µM stood at 65%. Also, in data set [2], the “AD38 Viability Normalized Result (CPAM/DMSO %) at 10 μM” value is listed as 98%.
For `COc1ccc(S(=O)(=O)N2CCN(c3nc(Nc4ccc(C)cc4)cc(-c4nccs4)n3)CC2)cc1` [Compound 1242], the activity at 10 µM in data set [1] stood at 30%. In addition, in data set [2], the “AD38 Viability Normalized Result (CPAM/DMSO %) at 10 μM” value is 103%.
In the case of `CNc1cc(Nc2ccc(C)cc2)nc(N2CCN(S(=O)(=O)c3ccc(OC)cc3)CC2)n1` [Compound 1243], the activity at 10 µM in data set [1] was found to be 32%. Also, the “AD38 Viability Normalized Result (CPAM/DMSO %) at 10 μM” value in data set [2] is recorded as 109%.
The like results for `Cc1ccc(Nc2cc(C)nc(N3CCN(S(=O)(=O)c4ccc(N)nc4)CC3)n2)cc1` [Compound 1245] were, in that order, 70% and 99%.
The like results for `COc1ccc(S(=O)(=O)N2CCN(c3nc(Nc4ccc(C)cc4)cc(-n4nccn4)n3)CC2)cc1` [Compound 1247] were, in that order, 6% and 98%.
Taken in the same sequence, the figures for `COc1ccc(S(=O)(=O)N2CCN(c3nc(Nc4ccc(C)cc4)cc(N(C)C(C)C)n3)CC2)cc1` [Compound 1248] were 8% and 33%.
Take `COc1ccc(S(=O)(=O)N2CCN(c3nc(Nc4ccc(C)cc4)cc(NC(C)(C)C)n3)CC2)cc1` [Compound 1249]: the activity at 10 µM in data set [1] was 31%. Besides, in data set [2], the “AD38 Viability Normalized Result (CPAM/DMSO %) at 10 μM” value was 65%.
Taken in the same sequence, the figures for `COc1ccc(S(=O)(=O)N2CCN(c3nc(Nc4ccc(C)cc4)cc(-c4ccccn4)n3)CC2)cc1` [Compound 1250, 2-(4-((4-methoxyphenyl)sulfonyl)piperazin-1-yl)-6-(pyridin-2-yl)-N-(p-tolyl) pyrimidin-4-amine] were 56% and 101%.
Turning to `COc1ccc(S(=O)(=O)N2CCN(c3nc(NCCN(C)C)cc(Nc4ccc(C)cc4)n3)CC2)cc1` [Compound 1251], the activity at 10 µM in data set [1] was 60%. Also, the “AD38 Viability Normalized Result (CPAM/DMSO %) at 10 μM” value in data set [2] is given as 56%.
As to `Cc1ccc(Nc2cc(C)nc(N3CCN(S(=O)(=O)c4ccncc4)CC3)n2)cc1` [Compound 1258], the activity at 10 µM in data set [1] amounted to 50%. The “AD38 Viability Normalized Result (CPAM/DMSO %) at 10 μM” value in data set [2] worked out at 105%.
For `Cc1ccc(Nc2cc(C)nc(N3CCN(S(=O)(=O)c4cnc(N)nc4)CC3)n2)cc1` [Compound 1260], in data set [1], the activity at 10 µM came out at 78%. In data set [2], the “AD38 Viability Normalized Result (CPAM/DMSO %) at 10 μM” value worked out at 98%.
Take `COc1ccc(S(=O)(=O)N2CCN(c3nc(C)cc(Nc4ncc(C)cn4)n3)CC2)cc1` [Compound 1261]: in data set [1], the activity at 10 µM was 87%. Moreover, the “AD38 Viability Normalized Result (CPAM/DMSO %) at 10 μM” value in data set [2] turned out to be 98%.
The like results for `COc1ccc(S(=O)(=O)N2CCN(c3nc(Nc4ccc(C)cc4)cc(OCCO)n3)CC2)cc1` [Compound 1265, 2-((2-(4-((4-methoxyphenyl)sulfonyl)piperazin-1-yl)-6-(p-tolylamino)pyrimidin-4-yl)oxy) ethan-1-ol] were, in that order, 13% and 102%.
Consider `COc1ccc(S(=O)(=O)N2CCN(c3nc(Nc4ccc(C)cc4)cc(N(C)C(C)(C)C)n3)CC2)cc1` [Compound 1273, N^4-(tert-butyl)-2-(4-((4-methoxyphenyl)sulfonyl)piperazin-1-yl)-N^4-methyl-N^6-(p-tolyl) pyrimidine-4,6-diamine], for which the activity at 10 µM in data set [1] is 16%. Besides, the “AD38 Viability Normalized Result (CPAM/DMSO %) at 10 μM” value in data set [2] is 98%.
Take `COc1ccc(S(=O)(=O)N2CCN(c3nc(Nc4ccc(C)cc4)cc(-c4ncc[nH]4)n3)CC2)cc1` [Compound 1274, 6-(1H-imidazol-2-yl)-2-(4-((4-methoxyphenyl)sulfonyl)piperazin-1-yl)-N-(p-tolyl) pyrimidin-4-amine]: the activity at 10 µM in data set [1] was found to be 19%. Also, the “AD38 Viability Normalized Result (CPAM/DMSO %) at 10 μM” value in data set [2] stood at 92%.
As to `COc1ccc(S(=O)(=O)N2CCN(c3nc(Nc4ccc(C)cc4)cc(-n4cnnc4)n3)CC2)cc1` [Compound 1282, 2-(4-((4-methoxyphenyl)sulfonyl)piperazin-1-yl)-N-(p-tolyl)-6-(4H-1,2,4-triazol-4-yl) pyrimidin-4-amine], in data set [1], the activity at 10 µM turned out to be 22%. Further, in data set [2], the “AD38 Viability Normalized Result (CPAM/DMSO %) at 10 μM” value was 99%.
Taken in the same sequence, the figures for `Cc1ccc(Nc2cc(C)nc(N3CCN(S(=O)(=O)c4cc(C(=O)Nc5cc(F)c(F)c(F)c5)ccc4F)CC3)n2)cc1` [Compound 1286, 4-fluoro-3-((4-(4-methyl-6-(p-tolylamino)pyrimidin-2-yl)piperazin-1-yl)sulfonyl)-N-(3,4,5-trifluorophenyl) benzamide] were 2% and 86%.
For `CC(C)c1cc(Oc2ccc(F)cc2)nc(N2CCN(S(=O)(=O)c3cccc(C(F)(F)F)c3)CC2)n1` [Compound 1287], the activity at 10 µM in data set [1] is 77%. Moreover, the “AD38 Viability Normalized Result (CPAM/DMSO %) at 10 μM” value in data set [2] was found to be 98%.
The like results for `Cc1ccc(S(=O)(=O)N2CCN(c3nc(Oc4ccc(F)cc4)cc(C(C)C)n3)CC2)cc1` [Compound 1288] were, in that order, 102% and 105%.
The like results for `CN(C)c1cc(Oc2ccc(F)cc2)nc(N2CCN(S(=O)(=O)c3cccc(C(F)(F)F)c3)CC2)n1` [Compound 1289] were, in that order, 55% and 105%.
The like results for `Cc1ccc(S(=O)(=O)N2CCN(c3nc(Oc4ccc(F)cc4)cc(N(C)C)n3)CC2)cc1` [Compound 1290] were, in that order, 62% and 105%.
Turning to `CC(C)c1cc(Oc2ccc(F)cc2)nc(N2CCN(S(=O)(=O)c3ccc(F)cc3)CC2)n1` [Compound 1295], in data set [1], the activity at 10 µM stood at 84%. Also, the “AD38 Viability Normalized Result (CPAM/DMSO %) at 10 μM” value in data set [2] turned out to be 101%.
Taken in the same sequence, the figures for `CC(C)c1cc(Oc2ccc(F)cc2)nc(N2CCN(S(=O)(=O)c3ccc(C(F)(F)F)cc3)CC2)n1` [Compound 1296] were 102% and 103%.
As for `CN(C)c1cc(Oc2ccc(F)cc2)nc(N2CCN(S(=O)(=O)c3ccc(F)cc3)CC2)n1` [Compound 1297], the activity at 10 µM in data set [1] came out at 59%. Also, the “AD38 Viability Normalized Result (CPAM/DMSO %) at 10 μM” value in data set [2] stood at 103%.
The like results for `CN(C)c1cc(Oc2ccc(F)cc2)nc(N2CCN(S(=O)(=O)c3ccc(C(F)(F)F)cc3)CC2)n1` [Compound 1298] were, in that order, 100% and 97%.
As for `CN(C)c1cc(Oc2ccc(F)cc2)nc(N2CCN(S(=O)(=O)c3ccccc3)CC2)n1` [Compound 1299], the activity at 10 µM in data set [1] was found to be 54%. Moreover, in data set [2], the “AD38 Viability Normalized Result (CPAM/DMSO %) at 10 μM” value was found to be 112%.
As to `CC(C)c1cc(Oc2ccc(F)cc2)nc(N2CCN(S(=O)(=O)c3ccccc3)CC2)n1` [Compound 1301], the activity at 10 µM in data set [1] was determined as 63%. In addition, the “AD38 Viability Normalized Result (CPAM/DMSO %) at 10 μM” value in data set [2] is 102%.
Turning to `CN(C)c1cc(Nc2ccc(F)cc2)nc(N2CCN(S(=O)(=O)c3ccc(F)cc3)CC2)n1` [Compound 1302], in data set [1], the activity at 10 µM was 52%. Moreover, the “AD38 Viability Normalized Result (CPAM/DMSO %) at 10 μM” value in data set [2] stood at 112%.
`CN(C)c1cc(Nc2ccc(F)cc2)nc(N2CCN(S(=O)(=O)c3ccc(C(F)(F)F)cc3)CC2)n1` [Compound 1303]: in data set [1], the activity at 10 µM stood at 14%. The “AD38 Viability Normalized Result (CPAM/DMSO %) at 10 μM” value in data set [2] is 35%.
